This note sets out measurements from patent US11369565B2, “Amino-pyrimidine skeletal muscle modulators” (Cytokinetics, Inc., priority 2010, dated 2022).

This test concerns rabbit skeletal myofibrils (approximately 90% fast fibers). The test can be described thus: Activation of fast skeletal myofibrils (PUMA coupled-enzyme ATPase assay at pCa25). The format is biochemical. The note with it: concentration at which the compound increased the enzymatic activity by 40%; calcium at pCa25; PM12 buffer pH 6.8. The essentials: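 In pH 6.8 PM12 buffer (12 mM Pipes, 2 mM MgCl2, 1 mM DTT), ADP from myosin regenerated via pyruvate kinase/lactate dehydrogenase, with absorbance change at 340 nm from NADH oxidation as read-out. Calcium set at pCa25; Triton-washed rabbit skeletal myofibrils (about 90% fast fibres) used.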
Consider `Cn1nc(C(N)=O)cc1-c1cnc(NC(C)(C)c2ncccc2Cl)nc1` [5-(2-{[1-(3-chloro(2-pyridyl))-isopropyl}amino}pyrimidin-5-yl)-1-methylpyrazole-3-carboxamide], for which the “Mean AC1.4” value is on record as “D (D=>20 uM)”.

Take `O=C(NCCO)c1cnc(NCC2(c3ncccc3F)CCC2)nc1` [[2-({[(3-fluoro(2-pyridyl))cyclobutyl]methyl}amino)pyrimdin-5-yl]-N-(2-hydroxyethyl)carboxamide]: the “Mean AC1.4” value is “D (D=>20 uM)”.

Take `CN1CC(NC(=O)c2ccc(F)c(-c3cnc(NC[C@]4(c5ncccc5F)C[C@H](F)C4)nc3)c2)C1` [{4-fluoro-3-[2-({[3-fluoro-1-(3-fluoro(2-pyridyl))cyclobutyl]methyl}amino)pyrimidin-5-yl]phenyl}-N-(1-methylazetidin-3-yl)carboxamide]: the “Mean AC1.4” value is “B (B=1-10 uM)”.

Take `Nc1nccc(-c2cnc(NC[C@]3(c4ncccc4F)C[C@H](F)C3)nc2)n1` [[5-(2-aminopyrimidin-4-yl)pyrimidin-2-yl]{[3-fluoro-1-(3-fluoro(2-pyridyl))cyclobutyl]methyl)amine]: the “Mean AC1.4” value is on record as “C (C=10-20 uM)”.

`CC(C)(O)c1cnn(-c2cnc(NC(C)(C)c3ncccc3Cl)nc2)c1` [2-[1-(2-{[1-(3-chloro(2-pyridyl))-isopropyl]amino}pyrimidin-5-yl)pyrazol-4-yl]propan-2-ol]: the “Mean AC1.4” value is “D (D=>20 uM)”.

In the case of `O=C(Nc1ccccc1F)c1cnc(NCC2(c3ncccc3F)CCC2)nc1` [[2-({[(3-fluoro(2-pyridyl))cyclobutyl]methyl}amino)pyrimidin-5-yl]-N-(2-fluorophenyl)carboxamide], the “Mean AC1.4” value was “D (D=>20 uM)”.

Regarding `NC(=O)c1cnc(-c2cnc(NCC3(c4ccccn4)CCC3)nc2)s1` [2-(2-{[(2-pyridylcyclobutyl)methyl]amino}pyrimidin-5-yl)-1,3-thlazole-5-carboxamide], the “Mean AC1.4” value is “B (B=1-10 uM)”.

As to `CC(C)(Nc1ncc(-c2ncc(CN)s2)cn1)c1ncccc1F` [{5-[5-(aminomethyl)(1,3-thiazol-2-yl)]pyrimidin-2-yl}[1-(3-fluoro(2-pyridyl))-isopropyl]amine], the “Mean AC1.4” value was “D (D=>20 uM)”.

As to `O=C(NC1(c2ccc(F)cc2)CCC1)c1cnc(NC2(c3ccc(F)cc3)CCC2)nc1C(F)(F)F` [N-[(4-fluorophenyl)cyclobutyl](2-{[(4-fluorophenyl)cyclobutyl]amino}-4-(trifluoromethyl)pyrimidin-5-yl)carboxamide], the “Mean AC1.4” value is reported as “D (D=>20 uM)”.

`CC(C)(Nc1ncc(-c2ncc(C(N)=O)o2)cn1)c1ncccc1Cl` [2-(2-{[1-(3-chloro(2-pyridyl))-isopropyl]amino}pyrimidin-5-yl)-1,3-oxazole-5-carboxamide]: the “Mean AC1.4” value is given as “D (D=>20 uM)”.

On to `CC(C)(CNc1ncc(-c2ccc(C(N)=O)cc2)cn1)c1ccc(F)cc1` [4-(2-{[2-(4-fluorophenyl)-2-methylpropyl]amino}pyrimidin-5-yl)benzamide], for which the “Mean AC1.4” value is reported as “B (B=1-10 uM)”.

On to `CC(C)(CNc1ncc2c(n1)CCN(S(C)(=O)=O)C2)c1ccc(F)cc1` [2-{[2-(4-fluorophenyl)-2-methylpropyl]amino}-6-(methylsulfonyl)-5,6,7,8-tetrahydropyridino[4,3-d]pyrimidine], for which the “Mean AC1.4” value was “B (B=1-10 uM)”.

`COc1ccc(C)nc1-c1cnc(NC[C@]2(c3ncccc3F)C[C@H](F)C2)nc1` [{[3-fluoro-1-(3-fluoro(2-pyridyl))cyclobutyl]methyl}[5-(3-methoxy-6-methyl(2-pyridyl))pyrimidin-2-yl]amine]: the “Mean AC1.4” value is recorded as “C (C=10-20 uM)”.

`CC(C)(Nc1ncc(-c2cc(C(N)=O)ccc2F)cn1)c1ncccc1F` [4-fluoro-3-(2-{[1-(3-fluoro(2-pyridyl))-isopropyl]amino}pyrimidin-5-yl)benzamide]: the “Mean AC1.4” value is “B (B=1-10 uM)”.

With `CC(C)(CNc1ncc2c(n1)CCN(C(=O)C(N)=O)C2)c1ccc(F)cc1` [2-(2-{[2-(4-fluorophenyl)-2-methylpropyl]amino}(5,6,7,8-tetrahydropyridino[4,3-d]pyrimidin-6-yl))-2-oxoacetamide], the “Mean AC1.4” value was “D (D=>20 uM)”.

With `CN1CC(NC(=O)c2cccc(-c3cnc(NC[C@]4(c5ncccc5F)C[C@H](F)C4)nc3)c2)C1` [{3-[2-({[3-fluoro-1-(3-fluoro(2-pyridyl))cyclobutyl]methyl}amino)pyrimidin-5-yl]phenyl}-N-(1-methylazetidin-3-yl)carboxamide], the “Mean AC1.4” value is reported as “A (A=<1 uM)”.

Regarding `NC(=O)c1cccc(-c2cnc(NCC3(c4ncccc4F)CCC3)nc2)c1` [3-[2-({[(3-fluoro-2-pyridyl)cyclobutyl]methyl}amino)pyrimidin-5-yl]benzamide], the “Mean AC1.4” value is on record as “A (A=<1 uM)”.

In the case of `CC(=O)NCCNC(=O)c1cnc(NCC2(c3ncccc3F)CCC2)nc1` [N-(2-{[2-({[(3-fluoro-2-pyridyl)cyclobutyl]methyl}amino)pyrimidin-5-yl]carbonylamino}ethyl)acetamide], the “Mean AC1.4” value was “D (D=>20 uM)”.

Take `N#Cc1cc(-c2cnc(NC3(c4ccc(F)cc4)CCC3)nc2)ccn1` [4-(2-{[(4-fluorophenyl)cyclobutyl]amino}pyrimidin-5-yl)pyridine-2-carbonitrile]: the “Mean AC1.4” value is reported as “C (C=10-20 uM)”.

Take `NC(=O)c1ccc(C(N)=O)c(-c2cnc(NC[C@]3(c4ncccc4F)C[C@H](F)C3)nc2)c1` [2-[2-({[3-fluoro-1-(3-fluoro(2-pyridyl))cyclobutyl)]methyl}amino) pyrimidin-5-yl]benzene-1,4-dicarboxamide]: the “Mean AC1.4” value was “B (B=1-10 uM)”.

Consider `CC(C)(Nc1ncc(-c2cccc(C(N)=O)c2)cn1)c1ncccc1Cl` [3-(2-{[1-(3-chloro(2-pyridyl))-isopropyl]amino}pyrimidin-5-yl)benzamide], for which the “Mean AC1.4” value is “A (A=<1 uM)”.

For the compound `CC(C)(C)OC(=O)NCC(=O)NCc1cnn(-c2cnc(NC(C)(C)c3ncccc3Cl)nc2)c1` [2-[(tert-butoxy)carbonylamino]-N-{[1-(2-{[1-(3-chloro(2-pyridyl))-isopropyl]amino}pyrimidin-5-yl)pyrazol-4-yl]methyl}acetamide], the “Mean AC1.4” value is given as “D (D=>20 uM)”.

With `Fc1cccnc1[C@]1(CNc2ncccn2)C[C@@H](F)C1` [{[3-fluoro-1-(3-fluoro(2-pyridyl))cyclobutyl]methyl}pyrimidin-2-ylamine], the “Mean AC1.4” value is listed as “D (D=>20 uM)”.

On to `CC(=O)NCc1ccc(-c2cnc(NC(C)(C)c3ncccc3F)nc2)cc1` [N-{[4-(2-{[1-(3-fluoro(2-pyridyl))-isopropyl}amino}pyrimidin-5-yl)phenyl]methyl}acetamide], for which the “Mean AC1.4” value is recorded as “D (D=>20 uM)”.

In the case of `CC(C)(C)OC(=O)NCCNC(=O)c1cnc(NCC2(c3ncccc3F)CCC2)nc1` [N-{2-[(tert-butoxy)carbonylamino]ethyl}[2-({[(3-fluoro(2-pyridyl))cyclobutyl]methyl}amino)pyrimidin-5-yl]carboxamide], the “Mean AC1.4” value is on record as “D (D=>20 uM)”.

Consider `NC(=O)c1ccc(F)c(-c2cnc(NCC3(c4ncccc4Cl)CC(F)(F)C3)nc2)c1` [3-[2-({[1-(3-chloro(2-pyridyl))-3,3-difluorocyclobutyl]methyl}amino)pyrimidin-5-yl]-4-fluorobenzamide], for which the “Mean AC1.4” value is “A (A=<1 uM)”.

As for `NC(=O)c1cnc(NCC2(c3ncccc3F)CCC2)nc1` [2-({[(3-fluoro-2-pyridyl)cyclobutyl]methyl}amino) pyrimidine-5-carboxamide], the “Mean AC1.4” value was “D (D=>20 uM)”.
